From patent US9284283B2, “Macrocyclic compounds for modulating IL-17” (ENSEMBLE THERAPEUTICS CORPORATION, priority 2012, dated 2016)

Biological target: T1, biotinylated human IL-17 (binding to IL17R/Fc) (Homo sapiens, UniProt Q16552)
T1 construct: purchased R&D Systems 317-ILB (IL-17, biotinylated); 177-IR (IL17R/Fc)
T1 sequence (Q16552 20-155 limits assumed): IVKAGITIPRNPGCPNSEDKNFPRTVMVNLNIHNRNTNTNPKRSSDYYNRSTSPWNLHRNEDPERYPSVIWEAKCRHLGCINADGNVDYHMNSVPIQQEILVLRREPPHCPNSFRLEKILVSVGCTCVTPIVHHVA
Assay: IL-17 competition ELISA II (captured IL17R/Fc, biotinylated IL-17)
Description: In this version, a high binding 96-well plate (Costar #9018) was coated with 20 nM of goat anti-human IgG (KPL 01-10-02) in PBS, 100 μL/well, for 30 min at 37° C. followed by 5 min at 4° C. The plate was then washed in PBST (PBS/0.05% Tween-20) on a plate washer, (BioTek ELx450) then blocked with protein-free blocking buffer (Thermo Scientific #37573) in 250 μL/well for 30 min on a shaker at room temperature, and then washed again. IL17R/Fc (R&D Systems #177-IR; 10 nM in PBST, 100 μL/well) was then added to all wells. The plate was then incubated for 30 minutes at room temperature on the shaker.
While the receptor capture step was underway, compound dilutions were prepared in PBST to a concentration of 1 μM in 1.5 mL tubes. After the receptor capture step, the plate was washed and 50 μL PBST was added to the wells in row B down to row H. Then, 62.5 μL of the 1 μM compound dilutions were added to the wells of row A. From row A, 12.5 μL of the compound solution was removed and added to row B with mixing and this process of 5-fold dilutions was continued, by row, to row G. One of the wells in row A received only PBST (62.5 μL) and this dilution series served as the no competitor control. Then, going up from row G to row A, 50 μL of b-IL-17 (biotinylated human IL-17, R&D Systems #317-ILB; 20 nM) was added to all wells. Row H received 50 μL of PBST and served as the blank row, i.e., no compound and no b-IL-17. The plate was then incubated for 30 minutes at room temperature on the shaker.
After the wash, 100 μL Streptavidin-Horseradish Peroxidase (SA-HRP) (KPL #14-30-00) at 25 ng/mL in PBST was added to each well in the plate and the plate incubated for 30 minutes at room temperature followed by wash and 100 μL SureBlue™ TMB (KPL #52-00-03). After sufficient color development (approx 3-6 minutes), the reaction was fixed by the addition of 100 μL/well 0.5 N HCl and absorbance was measured at 450 nm on a BioTek Synergy 2 plate reader. The absorbances of ‘no competitor’ control and blank control should not exceed 1.5 A.U. and 0.06 A.U., respectively.
Data was processed using BioAssay Enterprise v10.1.4 (CambridgeSoft) software. Linear OD λ450 were plotted against log concentration (x) and fitted to a 4-parameter logistic equation. IC50 was calculated using positive ‘no competitor’ control data as an upper limit and blank control as a lower limit in each assay.

SMILES	IC50 [nM]
CN1CCNCCNC(=O)CC2(CCCC2)CC(=O)N[C@H](Cc2ccc(NC(=O)[C@H](Cc3ccccc3Cl)NC(=O)Cc3ccccc3)cc2)C(=O)N[C@H](Cc2ccccc2)C1=O [Compound 433]	< 100
O=C1CC2(CCCC2)CC(=O)N[C@H](Cc2ccc(NC(=O)[C@H](Cc3ccccc3Cl)NC(=O)Cc3ccc(F)cc3)cc2)C(=O)N[C@H](Cc2ccccn2)C(=O)NCCCCCN1 [Compound 435]	< 100
O=C1CC2(CCCC2)CC(=O)N[C@H](Cc2ccc(NC(=O)[C@@H](NC(=O)c3ccncc3)C3CCCCC3)cc2)C(=O)N[C@H](Cc2ccccn2)C(=O)NCCCCCN1 [Compound 436]	100 to 1000
O=C1CNC(=O)[C@@H](Cc2ccc(-n3c(C(F)(F)F)nc(Cc4ccccc4Cl)c3OC(=O)C(F)(F)F)cc2)NC(=O)CC2(CCCC2)CC(=O)NCCCCCN1 [Compound 440]	100 to 1000
O=C(Cc1ccccc1)N[C@@H](Cc1ccccc1Cl)C(=O)Nc1ccc(C[C@H]2NC(=O)CC3(CCCC3)CC(=O)OCCNCCNC(=O)[C@@H](Cc3ccccc3)NC2=O)cc1 [Compound 444]	< 100
CN1CCNCCOC(=O)CC2(CCCC2)CC(=O)N[C@H](Cc2ccc(NC(=O)[C@H](Cc3ccccc3Cl)NC(=O)Cc3ccccc3)cc2)C(=O)N[C@H](Cc2ccccc2)C1=O [Compound 445]	< 100
CN1CCCC/C=C/CNC(=O)[C@@H](Cc2ccc(NC(=O)[C@H](Cc3ccccc3Cl)NC(=O)Cc3ccc(F)cc3)cc2)NC(=O)CC2(CCCC2)CC1=O [Compound 447]	< 100
CN1CCCC/C=C/CNC(=O)[C@@H](Cc2ccc(NC(=O)[C@@H](NC(=O)c3cccnc3)C3CCCCC3)cc2)NC(=O)CC2(CCCC2)CC1=O [Compound 448]	100 to 1000
O=C1CNC(=O)[C@@H](Cc2ccc(NC(=O)[C@@H](NC(=O)c3cnc4ccccc4c3)C3CCCCC3)cc2)NC(=O)CC2(CCCC2)CC(=O)NCCCCCN1 [Compound 449]	100 to 1000
O=C1CNC(=O)[C@@H](Cc2ccc(NC(=O)[C@@H](NC(=O)c3cncc4ccccc34)C3CCCCC3)cc2)NC(=O)CC2(CCCC2)CC(=O)NCCCCCN1 [Compound 450]	< 100
O=C1CC2(CCCC2)CC(=O)N[C@H](Cc2ccc(NC(=O)[C@H](Cc3ccccc3Cl)NC(=O)c3cccnc3)cc2)C(=O)N[C@@H](CO)C(=O)NCCCC[C@@H](C(=O)O)N1 [Compound 451]	< 100
O=C1CNC(=O)[C@H](Cc2ccc(NC(=O)[C@@H](Cc3ccccc3Cl)NC(=O)Cc3ccccc3)cc2)NC(=O)CC2(CCCC2)CC(=O)NCCCCCN1 [Compound 452]	1000 to 10000
O=C1CNC(=O)[C@H](Cc2ccc(NC(=O)[C@@H](Cc3ccccc3Cl)NC(=O)Cc3ccccc3)cc2)NC(=O)CC2(CCCC2)CC(=O)N[C@@H](C(=O)O)CCCCN1 [Compound 454]	1000 to 10000
CC(=O)N[C@@H](Cc1ccccc1Cl)C(=O)Nc1ccc(C[C@H]2NC(=O)CC3(CCCC3)CC(=O)N[C@H](C(=O)O)CCCCNC2=O)cc1 [Compound 456]	100 to 1000
O=C1CC2(CCCC2)CC(=O)N[C@H](Cc2ccc(NC(=O)[C@@H](NC(=O)c3cccnc3)C3CCCCC3)cc2)C(=O)NCC#CCCCCCN1 [Compound 458]	1000 to 10000
COC(=O)[C@@H]1CCCCNC(=O)CNC(=O)[C@@H](Cc2ccc(NC(=O)[C@H](Cc3ccccc3Cl)NC(=O)NCc3ccccc3)cc2)NC(=O)CC2(CCCC2)CC(=O)N1 [Compound 459]	< 100
O=C1CC2(CCCC2)CC(=O)N[C@H](Cc2ccc(NC(=O)[C@H](Cc3ccccc3Cl)NC(=O)Cc3ccc(F)cc3)cc2)C(=O)NCCCC[C@@H](C(=O)O)N1 [Compound 460]	< 100
O=C1CC2(CCCC2)CC(=O)N[C@H](Cc2ccc(NC(=O)[C@H](Cc3ccccc3Cl)NC(=O)Cc3cccc(O)c3)cc2)C(=O)NCCCC[C@@H](C(=O)O)N1 [Compound 461]	< 100

SMILES	IC50 [nM]
CN1CCCCCNC(=O)[C@@H](C(C)(C)C)NC(=O)[C@@H](Cc2ccc(NC(=O)[C@H](Cc3ccccc3Cl)NC(=O)Cc3cccc(O)c3)cc2)NC(=O)CC2(CCCC2)CC1=O [Compound 462]	< 100
O=C1CC2(CCCC2)CC(=O)N[C@H](Cc2ccc(NC(=O)[C@H](Cc3ccccc3Cl)NC(=O)NCc3ccccc3)cc2)C(=O)NCCOCCOCCN1 [Compound 463]	< 100
CNC(=O)N[C@@H](Cc1ccccc1Cl)C(=O)Nc1ccc(C[C@H]2NC(=O)CC3(CCCC3)CC(=O)NCCOCCOCCNC2=O)cc1 [Compound 464]	< 100
O=C1CC2(CCCC2)CC(=O)N[C@H](Cc2ccc(NC(=O)[C@H](Cc3ccccc3Cl)NC(=O)Cc3cccc(O)c3)cc2)C(=O)NCCNCCN1 [Compound 466]	< 100
CN1CCNC(=O)CC2(CCCC2)CC(=O)N[C@H](Cc2ccc(NC(=O)[C@H](Cc3ccccc3Cl)NC(=O)Cc3cccc(O)c3)cc2)C(=O)NCC1 [Compound 467]	< 100
CC(=O)N[C@@H](Cc1ccccc1Cl)C(=O)Nc1ccc(C[C@H]2NC(=O)CC3(CCCC3)CC(=O)NCCCCCNC(=O)[C@@H](C)NC2=O)cc1 [Compound 468]	< 100
CC(C)(C)[C@H]1NC(=O)[C@@H](Cc2ccc(NC(=O)[C@H](Cc3ccccc3Cl)NC(=O)C3(c4ccc(F)cc4)CC3)cc2)NC(=O)CC2(CCCC2)CC(=O)NCCCCCNC1=O [Compound 471]	100 to 1000
O=C(O)CC[C@H]1NC(=O)[C@@H](Cc2ccc(NC(=O)[C@H](Cc3ccccc3Cl)NC(=O)C3(c4ccc(F)cc4)CC3)cc2)NC(=O)CC2(CCCC2)CC(=O)NCCCCCNC1=O [Compound 472]	< 100
CN1C(=O)CC2(CCCC2)CC(=O)NCCOCCOCCNC(=O)[C@H]1Cc1ccc(NC(=O)[C@H](Cc2ccccc2Cl)NC(=O)Cc2ccc(F)cc2)cc1 [Compound 477]	< 100
O=C1CC2(CCCC2)CC(=O)N[C@H](Cc2ccc(NC(=O)[C@@H](NC(=O)Cc3cccc(O)c3)c3ccccc3)cc2)C(=O)NCCOCCOCCN1 [Compound 481]	100 to 1000
O=C1CC2(CCCC2)CC(=O)N[C@H](Cc2ccc(NC(=O)[C@H](Cc3ccccc3Cl)NC(=O)C3(c4ccc(F)cc4)CC3)cc2)C(=O)N[C@H](CO)C(=O)NCCCCCN1 [Compound 482]	< 100
C[C@H]1NC(=O)[C@@H](Cc2ccc(NC(=O)[C@H](Cc3ccccc3Cl)NC(=O)Cc3cccc(O)c3)cc2)NC(=O)CC2(CCCC2)CC(=O)NCCCCCNC1=O [Compound 483]	< 100
CN1CCNC(=O)CC2(CCCC2)CC(=O)N[C@H](Cc2ccc(NC(=O)[C@H](Cc3ccccc3Cl)NC(=O)NCc3ccccc3)cc2)C(=O)NCC1 [Compound 485]	< 100
C[C@H]1NC(=O)[C@@H](Cc2ccc(NC(=O)[C@H](Cc3ccccc3Cl)NC(=O)Cc3ccc(F)cc3)cc2)N(C)C(=O)CC2(CCCC2)CC(=O)NCCCCCNC1=O [Compound 486]	< 100
C[C@H]1NC(=O)[C@@H](Cc2ccc(NC(=O)[C@H](Cc3ccccc3Cl)NC(=O)Cc3ccc(F)cc3)cc2)N(C)C(=O)CC2(CCCC2)CC(=O)N(C)CCCCCN(C)C1=O [Compound 489]	< 100
CN1C(=O)CC2(CCCC2)CC(=O)NCCCCCC#CCNC(=O)[C@H]1Cc1ccc(NC(=O)[C@H](Cc2ccccc2Cl)NC(=O)C2(c3ccc(F)cc3)CC2)cc1 [Compound 491]	1000 to 10000
C[C@H]1NC(=O)[C@@H](Cc2cccc(NC(=O)[C@H](Cc3ccccc3Cl)NC(=O)Cc3ccc(F)cc3)c2)NC(=O)CC2(CCCC2)CC(=O)NCCCCCNC1=O [Compound 492]	100 to 1000
Cc1cccc(CC(=O)N[C@@H](Cc2ccccc2Cl)C(=O)Nc2ccc(C[C@H]3NC(=O)CC4(CCCC4)CC(=O)NCCOCCOCCNC3=O)cc2)c1 [Compound 496]	< 100
